Experimental data: ChEMBL document CHEMBL4507260 (2021)

What was measured:
Conditions in all cases: Compound concentration 1000.0 nM
[1] = target: Activin receptor type-1 (Homo sapiens) (UniProt Q04771)
[2] = target: RAC-alpha serine/threonine-protein kinase (Homo sapiens) (UniProt P31749)
[3] = target: Ankyrin repeat and protein kinase domain-containing protein 1 (Homo sapiens) (UniProt Q8NFD2)
[4] = target: Mitogen-activated protein kinase kinase kinase 6 (Homo sapiens) (UniProt O95382)
[5] = target: Bone morphogenetic protein receptor type-1A (Homo sapiens) (UniProt P36894)
[6] = target: Tyrosine-protein kinase BTK (Homo sapiens) (UniProt Q06187)
[7] = target: Calcium/calmodulin-dependent protein kinase type IV (Homo sapiens) (UniProt Q16566)
[8] = target: Calcium/calmodulin-dependent protein kinase kinase 2 (Homo sapiens) (UniProt Q96RR4)
Sequence of Calcium/calmodulin-dependent protein kinase kinase 2 (Homo sapiens) (Q96RR4 2-588 limits assumed): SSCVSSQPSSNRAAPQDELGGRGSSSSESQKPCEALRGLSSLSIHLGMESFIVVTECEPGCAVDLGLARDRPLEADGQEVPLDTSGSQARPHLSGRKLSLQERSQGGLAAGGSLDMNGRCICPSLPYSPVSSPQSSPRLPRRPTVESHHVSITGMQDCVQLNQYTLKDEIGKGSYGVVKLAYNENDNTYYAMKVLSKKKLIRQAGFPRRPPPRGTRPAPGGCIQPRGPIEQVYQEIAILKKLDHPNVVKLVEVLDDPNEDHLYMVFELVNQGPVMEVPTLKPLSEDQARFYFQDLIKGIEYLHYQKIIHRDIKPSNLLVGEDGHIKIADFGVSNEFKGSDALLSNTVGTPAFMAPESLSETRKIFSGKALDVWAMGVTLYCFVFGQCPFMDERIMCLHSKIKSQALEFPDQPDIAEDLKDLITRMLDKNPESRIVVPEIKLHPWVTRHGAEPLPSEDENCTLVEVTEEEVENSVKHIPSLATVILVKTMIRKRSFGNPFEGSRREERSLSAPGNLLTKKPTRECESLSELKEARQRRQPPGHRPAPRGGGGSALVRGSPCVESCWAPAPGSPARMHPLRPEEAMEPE

[9] = target: Cyclin-dependent kinase 11A (Homo sapiens) (UniProt Q9UQ88)
[10] = target: Cyclin-dependent kinase 5 (Homo sapiens) (UniProt Q00535)
Sequence of Cyclin-dependent kinase 5 (Homo sapiens) (Q00535 whole entry, looked up): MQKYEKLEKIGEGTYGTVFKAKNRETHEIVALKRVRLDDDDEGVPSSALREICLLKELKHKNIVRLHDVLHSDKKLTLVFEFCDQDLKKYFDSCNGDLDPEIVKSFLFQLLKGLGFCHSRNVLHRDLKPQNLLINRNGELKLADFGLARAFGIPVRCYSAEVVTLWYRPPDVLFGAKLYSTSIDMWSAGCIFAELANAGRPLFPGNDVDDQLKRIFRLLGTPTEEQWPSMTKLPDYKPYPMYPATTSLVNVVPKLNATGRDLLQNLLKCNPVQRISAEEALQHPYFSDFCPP

[11] = target: Cyclin-dependent kinase 8 (Homo sapiens) (UniProt P49336)
[12] = target: Tyrosine-protein kinase CSK (Homo sapiens) (UniProt P41240)
[13] = target: Casein kinase I isoform delta (Homo sapiens) (UniProt P48730)
[14] = target: Casein kinase I isoform gamma-1 (Homo sapiens) (UniProt Q9HCP0)
Sequence of Casein kinase I isoform gamma-1 (Homo sapiens) (Q9HCP0 whole entry, looked up, canonical isoform): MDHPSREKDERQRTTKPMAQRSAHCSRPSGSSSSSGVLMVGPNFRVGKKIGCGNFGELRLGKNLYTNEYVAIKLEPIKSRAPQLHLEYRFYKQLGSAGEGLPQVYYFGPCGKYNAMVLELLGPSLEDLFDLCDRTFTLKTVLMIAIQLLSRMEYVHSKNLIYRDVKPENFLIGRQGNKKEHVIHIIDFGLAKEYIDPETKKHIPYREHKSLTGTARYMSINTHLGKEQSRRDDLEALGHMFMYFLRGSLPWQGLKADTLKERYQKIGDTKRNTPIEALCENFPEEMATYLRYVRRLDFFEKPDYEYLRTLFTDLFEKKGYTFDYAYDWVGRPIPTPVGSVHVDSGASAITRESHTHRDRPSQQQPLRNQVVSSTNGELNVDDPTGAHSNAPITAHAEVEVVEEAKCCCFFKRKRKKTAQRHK

[15] = target: Myotonin-protein kinase (Homo sapiens) (UniProt Q09013)
Sequence of Myotonin-protein kinase (Homo sapiens) (Q09013 whole entry): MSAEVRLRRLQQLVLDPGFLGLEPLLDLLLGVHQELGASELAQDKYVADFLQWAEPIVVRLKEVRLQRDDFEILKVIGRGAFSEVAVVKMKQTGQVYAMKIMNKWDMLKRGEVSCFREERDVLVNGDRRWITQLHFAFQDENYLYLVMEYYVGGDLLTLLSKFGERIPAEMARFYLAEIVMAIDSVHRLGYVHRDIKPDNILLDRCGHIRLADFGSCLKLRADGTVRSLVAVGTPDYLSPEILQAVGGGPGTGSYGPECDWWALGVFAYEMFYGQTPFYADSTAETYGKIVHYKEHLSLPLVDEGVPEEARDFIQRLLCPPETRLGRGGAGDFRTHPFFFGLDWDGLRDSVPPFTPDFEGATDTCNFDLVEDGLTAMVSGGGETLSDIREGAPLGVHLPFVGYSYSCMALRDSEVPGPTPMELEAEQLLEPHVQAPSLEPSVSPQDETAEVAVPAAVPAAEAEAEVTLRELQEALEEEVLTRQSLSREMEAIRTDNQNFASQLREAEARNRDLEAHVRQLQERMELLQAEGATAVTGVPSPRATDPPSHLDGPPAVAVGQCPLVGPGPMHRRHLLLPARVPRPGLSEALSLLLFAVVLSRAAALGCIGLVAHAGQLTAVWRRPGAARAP

[16] = target: Ephrin type-A receptor 4 (Homo sapiens) (UniProt P54764)
[17] = target: Ephrin type-A receptor 8 (Homo sapiens) (UniProt P29322)
[18] = target: Receptor tyrosine-protein kinase erbB-4 (Homo sapiens) (UniProt Q15303)
[19] = target: Tyrosine-protein kinase Fer (Homo sapiens) (UniProt P16591)
[20] = target: Fibroblast growth factor receptor 1 (Homo sapiens) (UniProt P11362)
Sequence of Fibroblast growth factor receptor 1 (Homo sapiens) (P11362 22-822 limits assumed): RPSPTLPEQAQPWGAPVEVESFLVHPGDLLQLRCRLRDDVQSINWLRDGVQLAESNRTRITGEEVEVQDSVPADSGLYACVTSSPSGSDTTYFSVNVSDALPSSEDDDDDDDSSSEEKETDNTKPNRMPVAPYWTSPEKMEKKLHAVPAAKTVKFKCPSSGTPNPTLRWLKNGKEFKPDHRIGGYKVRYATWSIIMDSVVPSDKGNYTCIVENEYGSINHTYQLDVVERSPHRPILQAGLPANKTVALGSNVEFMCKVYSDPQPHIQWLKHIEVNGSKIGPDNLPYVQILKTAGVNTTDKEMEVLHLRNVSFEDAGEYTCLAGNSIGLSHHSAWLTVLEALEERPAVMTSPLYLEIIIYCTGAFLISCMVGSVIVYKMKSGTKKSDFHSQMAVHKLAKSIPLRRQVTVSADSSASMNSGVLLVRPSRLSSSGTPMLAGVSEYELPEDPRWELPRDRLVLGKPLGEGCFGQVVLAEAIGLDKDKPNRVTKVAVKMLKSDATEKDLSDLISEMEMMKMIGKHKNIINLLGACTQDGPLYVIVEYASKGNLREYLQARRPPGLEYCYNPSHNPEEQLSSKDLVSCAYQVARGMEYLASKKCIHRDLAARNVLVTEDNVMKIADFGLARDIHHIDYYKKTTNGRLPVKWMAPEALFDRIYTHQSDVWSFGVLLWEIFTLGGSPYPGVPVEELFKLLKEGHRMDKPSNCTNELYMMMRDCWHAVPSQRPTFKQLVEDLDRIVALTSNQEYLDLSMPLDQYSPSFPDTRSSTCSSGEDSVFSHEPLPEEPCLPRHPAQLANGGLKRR

[21] = system: Fibroblast growth factor receptor 3 (Homo sapiens), P22607 [G697C]
[22] = system: Receptor-type tyrosine-protein kinase FLT3 (Homo sapiens), P36888 [UNDEFINED MUTATION]
[23] = target: Homeodomain-interacting protein kinase 2 (Homo sapiens) (UniProt Q9H2X6)
[24] = target: Interleukin-1 receptor-associated kinase 4 (Homo sapiens) (UniProt Q9NWZ3)
Sequence of Interleukin-1 receptor-associated kinase 4 (Homo sapiens) (Q9NWZ3 whole entry): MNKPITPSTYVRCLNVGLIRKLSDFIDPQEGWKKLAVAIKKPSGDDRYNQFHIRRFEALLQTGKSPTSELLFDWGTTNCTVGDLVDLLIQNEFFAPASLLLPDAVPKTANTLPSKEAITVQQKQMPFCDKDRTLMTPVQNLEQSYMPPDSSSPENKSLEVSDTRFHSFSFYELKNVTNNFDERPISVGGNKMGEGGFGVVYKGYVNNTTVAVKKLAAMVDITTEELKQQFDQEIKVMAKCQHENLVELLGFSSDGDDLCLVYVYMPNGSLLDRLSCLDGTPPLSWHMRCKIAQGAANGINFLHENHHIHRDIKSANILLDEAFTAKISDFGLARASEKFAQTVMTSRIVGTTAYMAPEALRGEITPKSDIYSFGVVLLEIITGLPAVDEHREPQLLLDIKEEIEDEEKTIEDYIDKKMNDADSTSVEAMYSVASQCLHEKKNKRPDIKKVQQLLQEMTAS

[25] = target: Mitogen-activated protein kinase 9 (Homo sapiens) (UniProt P45984)
[26] = target: LIM domain kinase 2 (Homo sapiens) (UniProt P53671)
[27] = target: MAP kinase-activated protein kinase 2 (Homo sapiens) (UniProt P49137)
[28] = target: Microtubule-associated serine/threonine-protein kinase 1 (Homo sapiens) (UniProt Q9Y2H9)
[29] = target: Serine/threonine-protein kinase NLK (Homo sapiens) (UniProt Q9UBE8)
[30] = target: Serine/threonine-protein kinase OSR1 (Homo sapiens) (UniProt O95747)
[31] = target: Serine/threonine-protein kinase PAK 1 (Homo sapiens) (UniProt Q13153)
[32] = target: Phosphatidylinositol 4-phosphate 5-kinase type-1 alpha (Homo sapiens) (UniProt Q99755)
Sequence of Phosphatidylinositol 4-phosphate 5-kinase type-1 alpha (Homo sapiens) (Q99755 whole entry): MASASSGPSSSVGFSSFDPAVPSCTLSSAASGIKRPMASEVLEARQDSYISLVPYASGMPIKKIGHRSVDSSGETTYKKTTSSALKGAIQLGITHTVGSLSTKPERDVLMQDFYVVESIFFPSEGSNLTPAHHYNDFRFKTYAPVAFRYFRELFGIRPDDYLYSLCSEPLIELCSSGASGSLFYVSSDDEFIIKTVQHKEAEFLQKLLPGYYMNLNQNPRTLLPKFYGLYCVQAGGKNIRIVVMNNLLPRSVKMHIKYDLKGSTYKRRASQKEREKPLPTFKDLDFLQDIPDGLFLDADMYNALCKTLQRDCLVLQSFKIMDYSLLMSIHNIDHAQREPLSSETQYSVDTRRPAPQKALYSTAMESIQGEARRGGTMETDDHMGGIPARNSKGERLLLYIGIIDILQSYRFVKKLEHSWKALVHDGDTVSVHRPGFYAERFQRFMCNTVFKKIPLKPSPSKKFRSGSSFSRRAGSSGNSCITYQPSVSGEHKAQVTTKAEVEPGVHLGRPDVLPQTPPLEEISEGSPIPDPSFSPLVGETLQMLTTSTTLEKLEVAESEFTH

[33] = target: Rho-associated protein kinase 1 (Homo sapiens) (UniProt Q13464)
[34] = target: Ribosomal protein S6 kinase alpha-5 (Homo sapiens) (UniProt O75582)
[35] = target: Serine/threonine-protein kinase TBK1 (Homo sapiens) (UniProt Q9UHD2)
[36] = target: Dual specificity testis-specific protein kinase 1 (Homo sapiens) (UniProt Q15569)
Sequence of Dual specificity testis-specific protein kinase 1 (Homo sapiens) (Q15569 whole entry, looked up): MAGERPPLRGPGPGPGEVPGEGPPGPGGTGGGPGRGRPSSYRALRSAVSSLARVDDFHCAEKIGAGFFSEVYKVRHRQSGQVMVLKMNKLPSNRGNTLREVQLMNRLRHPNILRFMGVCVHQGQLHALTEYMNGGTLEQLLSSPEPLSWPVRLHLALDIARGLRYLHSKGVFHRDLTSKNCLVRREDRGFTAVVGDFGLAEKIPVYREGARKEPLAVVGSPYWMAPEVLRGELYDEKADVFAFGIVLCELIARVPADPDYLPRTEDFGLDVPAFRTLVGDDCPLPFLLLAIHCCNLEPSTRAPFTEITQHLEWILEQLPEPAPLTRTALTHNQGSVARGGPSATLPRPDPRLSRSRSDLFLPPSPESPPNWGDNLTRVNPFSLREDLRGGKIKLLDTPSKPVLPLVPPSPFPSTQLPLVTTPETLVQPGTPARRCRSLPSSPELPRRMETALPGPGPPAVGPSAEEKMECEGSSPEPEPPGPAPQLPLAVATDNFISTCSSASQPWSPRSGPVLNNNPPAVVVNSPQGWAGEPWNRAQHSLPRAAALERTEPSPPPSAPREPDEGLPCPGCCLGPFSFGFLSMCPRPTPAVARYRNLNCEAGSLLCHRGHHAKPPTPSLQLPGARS

[37] = target: TGF-beta receptor type-1 (Homo sapiens) (UniProt P36897)
Sequence of TGF-beta receptor type-1 (Homo sapiens) (P36897 whole entry): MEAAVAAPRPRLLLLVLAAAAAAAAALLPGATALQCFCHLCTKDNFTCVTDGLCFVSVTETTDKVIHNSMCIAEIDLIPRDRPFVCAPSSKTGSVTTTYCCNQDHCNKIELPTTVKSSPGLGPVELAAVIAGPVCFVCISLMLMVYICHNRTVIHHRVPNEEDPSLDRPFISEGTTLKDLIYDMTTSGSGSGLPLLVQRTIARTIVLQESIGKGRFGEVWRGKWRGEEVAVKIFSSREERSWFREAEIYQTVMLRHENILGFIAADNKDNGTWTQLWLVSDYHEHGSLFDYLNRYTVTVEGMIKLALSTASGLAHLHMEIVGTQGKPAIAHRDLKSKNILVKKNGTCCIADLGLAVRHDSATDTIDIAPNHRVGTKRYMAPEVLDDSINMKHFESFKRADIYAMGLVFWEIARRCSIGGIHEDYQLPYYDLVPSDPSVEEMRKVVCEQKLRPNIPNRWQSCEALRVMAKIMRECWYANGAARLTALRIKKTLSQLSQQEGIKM

[38] = target: Tyrosine-protein kinase receptor Tie-1 (Homo sapiens) (UniProt P35590)
[39] = target: Testis-specific serine/threonine-protein kinase 3 (Homo sapiens) (UniProt Q96PN8)
[40] = target: Non-receptor tyrosine-protein kinase TYK2 (Homo sapiens) (UniProt P29597)
[41] = target: Tyrosine-protein kinase receptor TYRO3 (Homo sapiens) (UniProt Q06418)
[42] = target: Serine/threonine-protein kinase WNK3 (Homo sapiens) (UniProt Q9BYP7)
[43] = target: Serine/threonine-protein kinase 32A (Homo sapiens) (UniProt Q8WU08)
[44] = target: Serine/threonine-protein kinase 32B (Homo sapiens) (UniProt Q9NY57)
[45] = target: Serine/threonine-protein kinase 25 (Homo sapiens) (UniProt O00506)

Measured: residual activity

CSc1cccnc1N1CCN(Cc2nc3ccccc3[nH]2)CC1 [A-769]
inactive: [1] 100% | [2] 100% | [3] 92% | [4] 92% | [5] 100% | [6] 79% | [7] 100% | [8] 100% | [9] 100% | [10] 99% | [11] 87% | [12] 100% | [13] 100% | [14] 100% | [15] 81% | [16] 100% | [17] 95% | [18] 83% | [19] 100% | [20] 100% | [21] 100% | [22] 100% | [23] 62% | [24] 74% | [25] 68% | [26] 100% | [27] 80% | [28] 100% | [29] 100% | [30] 78% | [31] 100% | [32] 96% | [33] 93% | [34] 100% | [35] 100% | [36] 100% | [37] 100% | [38] 100% | [39] 98% | [40] 84% | [41] 100% | [42] 100% | [43] 100% | [44] 100% | [45] 100%

c1ccc(N2CCN(Cc3nc4ccccc4[nH]3)CC2)nc1 [ABT-724]
active: [23] 26%
inactive: [1] 100% | [2] 90% | [3] 100% | [4] 98% | [5] 86% | [6] 96% | [7] 88% | [8] 91% | [9] 100% | [10] 100% | [11] 100% | [12] 100% | [13] 95% | [14] 100% | [15] 100% | [16] 100% | [17] 100% | [18] 95% | [19] 100% | [20] 100% | [21] 100% | [22] 100% | [24] 100% | [25] 100% | [26] 100% | [27] 100% | [28] 65% | [29] 100% | [30] 100% | [31] 94% | [32] 79% | [33] 100% | [34] 100% | [35] 77% | [36] 97% | [37] 97% | [38] 96% | [39] 92% | [40] 100% | [41] 93% | [42] 100% | [43] 100% | [44] 100% | [45] 94%
